Experimental data as given in patent US9375450B2, “Vaginal tissue rejuvenation compositions and methods” (priority 2011, dated 2016).

Experiments:
[1] = test system: rat vaginal Collagen I, Collagen III, Collagen V protein; assay: Immunofluorescence of vaginal collagen protein expression after 2 weeks vaginal suppositories; format: in vivo; conditions: OVX rats, vaginal suppositories 2 weeks, mean±SD; for ratio of vaginal Collagen I to Collagen III protein expression: placebo 1.16±0.2; for ratio of vaginal Collagen I to Collagen V protein expression: placebo 1.28±0.3
Method: Ten to 12-weeks old female ovariectomized (OVX) Sprague-Dawley rats were utilized for the experiments. The animals were acclimatized to the environmental conditions before starting the experiment. The animals were housed individually and were allowed free access to water and rodent food. […] The suppositories were prepared according to the fusion method, using a polypeg suppository base ([…]., USA). […] Using a microwave, the suppository base was melted in a small beaker for 3 min and then transferred and kept into a water bath at a temperature of 55° C. The proper amount of above reagent was added to the liquefied base and meticulously crushed with a smooth rounded-end glass rod for about 20 min to make the solution to be even and clear. A pipette tip was used to suck some amount of solution and push it into a plastic tube with a diameter of 3.5 mm, and the tube was immediately left on the flat surface of an ice bucket. The suppository turned to white in color when it was solid. The moulded suppository was then pushed out of the tube using a round rod. […] After 30 min of cooling at room temperature, the suppositories were stored at 4° C. in a closed chamber until use. They were left to reach room temperature before use. The day after the last treatment the rats were overnight fasted and then sacrificed. Macroscopic measurement (genital hiatus, vaginal length) were taken and the vagina was dissected out carefully to avoid any injury to the vagina. The mid section of the vagina was utilized for histology (H and E stain, Masson's trichrome stain) and immunofluorescence and the rest of the vagina was used for RNA extraction and RT-PCR. Samples were incubated with three different antibodies, collagen I, III and anti-actin or collagen I and V and anti-actin. Frozen tissues samples were cut into sections of 6 μm and fixed for 10 min with acetone, followed by five washes of phosphate-buffered saline (PBS). […] After that, sections were incubated with the secondary antibody for one hour in the dark, at room temperature, followed by five washes of PBS. […] Alexa Fluor 405 Goat Anti-Mouse IgG (1:400) (Invitrogen); Cy3-AffiniPure Goat Anti-Mouse IgM (1:400) (Jackson ImmunoResearch Laboratories, West Grove, Pa.); Alexa Fluor 647 (1;200) phalloidin (Invitrogen). […] Four images were obtained per section. Images were capture with an Orca II-ERG 12 bitt CCD camera in a Zeiss Apotome microscope with a 20× objective. The data was analyzed using Matamorph version 7.7.4 software. Results are represented as mean pixel intensity ratios per square area.

[2] = test system: primary vaginal smooth muscle cells; assay: Sircol collagen assay (cell culture surface deposited collagen); format: cell-based, human; conditions: 48 hours of treatment, mean±SD
Method: After removal of the uterus, full-thickness samples of the anterior vaginal wall were obtained from the vaginal cuff at the anterior midline portion under sterile condition from four women without POP. Specimens were preserved in cold DMEM/F12 (Invitrogen, Carlsbad, Calif.) supplemented with 10% FBS, 1 mM glutamine, 0.075% Na2HCO3 and 100 ug/ml penicillin-streptomycin. After a maximum time of 4 hours from tissue harvesting the tissue was mechanically minced in cold cultured media and the fragments were washed 3 times in PBS and were plated onto fibronectin coated plastic dishes (Thermo Fischer Scientific, Rochester, N.Y.). After the initial outgrowth, clones with a morphology resembling the smooth muscle phenotype were patch cloned and propagated in culture. For cell characterization a 5000 cell/well fibronectin coated 8-well chamber slide was plated. Once cell confluence reached 80% the cells were washed twice with PBS and fixed in 4% PFA for 30 min at 37° C. To verify the intracytoplasmic distribution of F-actin fibers 4% PFA fixed cells were exposed to a permeabilizing solution of Tryton X100 0.1% and Rhodamine Phalloidin for 45 min at 37° C. Slides were then treated with mounting media (Vectashield, Vector Laboratories, Burlingame, Calif.) containing DAPI for nucleic acid staining and image acquisition was performed in glycerol immersion by confocal microscopy. In addition, the 8-well chamber slides were used to carry out the immunocytochemical staining. After blockage of endogenous peroxidase activity with a solution of hydrogen peroxide and methanol, slides were sequentially treated with the primary mouse antibody, biotinylated anti-mouse immunoglobulin, and Streptavidin-biotin-peroxidase complex (LSAB™+/HRP kit, Dako, Carpinteria, Calif.). Diaminobenzidine was used as a chromogen in the presence of hydrogen peroxide. Slides were then counterstained with hematoxylin. All reactions were carried out at room temperature (22° C.). To identify the SMC, anti-smooth muscle actin antibodies were used (monoclonal mouse, 1:250, 30 min incubation, clone 1A4, catalog #0851 Dako, Carpinteria, Calif.). Caldesmon expression was studied with a monoclonal mouse antibody, 1:100, 30 min incubation, (clone h-CD catalog #M3557 Dako, Carpinteria, Calif.). An antigen retrieval step was used for caldesmon using citrate buffer and a steamer for 30 min. As a negative control normal mouse serum was substituted for the antibody.
The Sircol Assay (Biocolor Ltd., UK) is a dye-binding method designed for the analysis of acid and pepsin-soluble collagens. […]
The amount of collagen was determined by SIRCOL collagen assay according to manufacturer's instructions. […] Extracts were incubated with Sirius red dye and absorbance was determined at 555 nm with a spectrophotometer.

Row | Structure (SMILES) | ratio of vaginal Collagen I to Collagen III protein expression [1] | ratio of vaginal Collagen I to Collagen V protein expression [1] | cell culture surface deposited collagen production normalized to cell number (% of control) ([2]; zinc sulfate 10 μM) | cell culture surface deposited collagen production normalized to cell number (% of control) ([2]; zinc sulfate 20 μM) | cell culture surface deposited collagen production normalized to cell number (% of control) ([2]; GW 10 nM) | cell culture surface deposited collagen production normalized to cell number (% of control) ([2]; GW 100 nM)
1 | O.O.O.O.O.O.O.O=S(=O)([O-])[O-].[Zn+2] [zinc sulfate, zinc sulfate heptahydrate] | 1.37±0.1 relative units | 1.50±0.4 relative units | 139.3±49 % of control | 129.6±27 % of control |  | 
2 | Cc1cc(SCc2sc(-c3ccc(C(F)(F)F)cc3)nc2C)ccc1OCC(=O)O [GW501516, 2-[2-methyl-4-([4-methyl-2-[4-(trifluoromethyl)phenyl)-1,3-thiazol-5-yl]methylsulfanyl]phenoxy]acetic acid] | 1.20±0.1 relative units | 1.20±0.4 relative units |  |  | 151.0±22 % of control | 118.2±19 % of control
